# Measurements as given in paper PMC6744417, “ALKBH overexpression in head and neck cancer: potential target for novel anticancer therapy” (Scientific Reports, 2019).
# Like-named read-outs stand apart in the source and are kept apart here.
# How the values were obtained:
# EUFA30 cells [1] = assay: Alamar Blue viability assay, EUFA30; type: cell-based, human; settings: normal fibroblast cells, 48 h of treatment
# Procedure: (§1) Exponentially growing cells at the density of 3 × 10^3 cells/well were seeded onto a 96-well plate, cultured for 18 h followed by the respective treatment of antraquinones or its derivatives in various concentrations or 34 nM RNA interference of ALKBH proteins, and then cultured for a an additional 48 h. Alamar Blue (Invitrogen) viability assay was performed according to manufacturer’s protocol: after 4 h incubation, emission at 590 nm was measured with excitation at 560 nm using a scanning multiwall multimode spectrophotometer (DTX 880, Beckman Coulter). The experiment was carried out at least three times, with three replicates for each inhibitor concentration. After background subtraction, inhibition rates, IC50, values were calculated as the concentration of the component that inhibits cell growth by 50%. All the calculations were done using Origin 9.0 software.
# ALKBH3 [2] = tested on: ALKBH3; design: method as in ref 14 (Li and co-workers 2016); settings: ref 14 (Li and co-workers 2016); read-out: IC50 against ALKBH3; cited from earlier work
# EUFA30 cells [3] = assay: Flow cytometry Annexin V-FITC / propidium iodide, EUFA30; type: cell-based, human; settings: EUFA30, 500 μM, 48 h
# Procedure: (§2) Silencing was performed using the lipofectamine RNAiMAX reagent (Invitrogen) and ready-to-use siRNA mixture (Santa Cruz Biotechnology) composed of at least two different siRNAs targeting the same gene, to knock down ALKBH1, 2, 3, 4, 5, 8, and FTO (Supplementary Table 2). 1 × 10^6 cells were seeded onto a 100 mm diameter dishes. After 24 h of incubation, siRNAs mixtures (with lipofectamine, in OPTI-MEM medium) were added. After 48 h, cells were collected for WB or flow cytometry analysis. For WB analysis, adherent cells were rinsed three times with PBS, scraped, and centrifuged (800 x g, 10 min, 4 °C). Next, cells were re-suspended in 100 μL RIPA buffer with a 1 x mammalian protease inhibitor cocktail (Sigma-Aldrich). The resulting lysates were spun down at 30 130 x g to remove insoluble particles, assayed for protein content using the Bradford assay, and loaded onto the SDS-PAGE at the protein amount of 20 μg per line. The strength of WB signals corresponding to the particular ALKBHs were calculated by densitometry. The expression changes by 30% were considered as significant.
# (§3) The Annexin V-FITC apoptosis detection kit (ApoAlert Annexin V-FITC Apoptosis Kit, TaKaRa) was used to detect apoptosis by flow cytometry. Cells were seeded at 6-well plates at concentration of 5 × 10^5 cells/well, cultured for 18 h, and then the tested agent was applied for the indicated periods. Afterward, cells were washed with PBS, resuspended in binding buffer, and anti-Annexin V FITC-conjugated antibody and propidium iodide were added to 100 µl aliquots. The mixtures were incubated for 15 min at room temperature, supplemented with binding buffer to 500 µl, and processed using BD FACSCalibur (BD Biosciences). Data were analyzed in Flowing Software version 2.5.1 (Flowing Software, http://www.uskonaskel.fi/flowingsoftware).
# HeLa cells [4] = assay: Alamar Blue viability assay, HeLa; type: cell-based, human; settings: 48 h of treatment
# Procedure: (§4) Alamar Blue (Invitrogen) viability assay was performed according to manufacturer’s protocol: after 4 h incubation, emission at 590 nm was measured with excitation at 560 nm using a scanning multiwall multimode spectrophotometer (DTX 880, Beckman Coulter). The experiment was carried out at least three times, with three replicates for each inhibitor concentration. […] All the calculations were done using Origin 9.0 software.
# HEK293 cells = assay: Alamar Blue viability assay, HEK293; type: cell-based, human; settings: 48 h of treatment
# Procedure: as §4
# ALKBH3 [5] = biological target: T1, ALKBH3 (Homo sapiens, UniProt Q96Q83); assay: In vitro inhibition assay of demethylation activity (HPLC), ALKBH3; type: biochemical
# T1 construct: made in house
# T1 sequence (Q96Q83 1-286): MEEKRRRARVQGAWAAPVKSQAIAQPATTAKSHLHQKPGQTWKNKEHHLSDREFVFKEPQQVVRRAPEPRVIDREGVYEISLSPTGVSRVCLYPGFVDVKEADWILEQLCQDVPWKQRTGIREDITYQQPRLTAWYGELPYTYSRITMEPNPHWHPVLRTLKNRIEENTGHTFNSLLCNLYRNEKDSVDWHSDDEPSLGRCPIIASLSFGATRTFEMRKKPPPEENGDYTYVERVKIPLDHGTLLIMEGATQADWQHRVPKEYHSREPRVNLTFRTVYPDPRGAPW
# Procedure: (§5) For EcAlkB, ALKBH3, and FTO, the inhibitory effect was further quantified by measuring inhibition of demethylation activity in vitro (Fig. 6D). […]. The reactions were carried out for 30 min at 37 °C in 20 µl of 50 mM Tris-HCl pH 7.5 with 1 mM DTT, 100 µM Fe(NH4)2(SO4)2, 50 µM 2OG, and 100 nM of AlkB or ALKBH3, 25 µM of substrate, and different concentrations of indicated inhibitors. […]. Modified and unmodified (repaired) products were separated and analyzed on Knauer HPLC system with C18 column (Waters NovaPak). The mobile phase binding buffer (20 mM TEAA) and elution buffer (acetonitrile) were mixed and flown at a rate of 1 ml/min. The detection wavelength was 260 nm.
# ALKBH3 [6] = biological target: T1, ALKBH3; assay: Thermal shift assay for ligand binding, ALKBH3 holo form; settings: ALKBH3 holo form (2OG, Mn2+), 5 µM compound; result in words
# Procedure: (§6) We tested the affinity of our newly synthesized anthraquinones, 7-chloroemodin and 5,7-dichloroemodin, (Fig. S13) for ALKBH3 and FTO and assessed their effect on the enzymatic activity of targeted proteins using the thermal shift assay (TSA). The thermodynamic parameters for thermal denaturation of both proteins were measured for their holo forms, in the presence of 2OG and Mn^2+, an analogue of Fe^2+.
# (§7) The assay was developed previously to monitor ligand binding to AlkB[36]. Fluorescence experiments were performed using a Varian Cary Eclipse spectrofluorimeter. Emission was monitored at 345 nm (excitation at 280 nm) over a temperature range of 40-95 °C with heating rate of 1 °C/min. The protein samples were dissolved in HEPES buffer at pH 7.5 with 2 mM dithiotreitol (DTT) and 150 mM NaCl to a final concentration of 1.2 µM. The process of thermal unfolding was performed at a concentration of 5 µM of the tested compound, either in the presence or absence of cofactors (50 µM 2OG and 100 µM Mn(II)). The thermal unfolding of the holo form of the protein was always monitored and further used as the reference. All the calculations were performed using Origin 9.0 software, assuming the simplest model of two-state (Folded-Unfolded) transition.
# BICR18 cells = assay: Alamar Blue viability assay, BICR18; type: cell-based, human; settings: 48 h of treatment
# Procedure: as §4
# EcAlkB = biological target: T2, EcAlkB (Escherichia coli, UniProt P05050); assay: In vitro inhibition assay of demethylation activity (HPLC), AlkB; type: biochemical
# T2 construct: made in house
# Procedure: as §5
# U87 cells [7] = assay: Alamar Blue viability assay, U87; type: cell-based, human; settings: 48 h of treatment
# Procedure: as §1
# U87 cells [8] = tested on: U87 cells; design: method as in ref 14 (Li and co-workers 2016); settings: ref 14 (Li and co-workers 2016); cited from earlier work
# FTO [9] = biological target: T3, FTO (Homo sapiens, UniProt Q9C0B1); assay: Thermal shift assay for ligand binding, FTO holo form; settings: FTO holo form (2OG, Mn2+), 5 µM compound; holo form alone 52.8 ± 0.6 °C
# T3 construct: His; made in house; host or cells: E. coli BL-21
# Procedure: as §6, §7
# HeLa cells [10] = assay: Flow cytometry Annexin V-FITC / propidium iodide, HeLa; type: cell-based, human; settings: 48 h, untreated control 10.8%
# Procedure: as §2, §3
# FTO [11] = biological target: T3, FTO; assay: FTO N6meA demethylation Chemiluminescent Assay Kit; type: biochemical; settings: FTO 330 nM; N6meA on RNA; read-out: IC50 (Enzyme: FTO 330nM; Substrate: N6meA)
# Procedure: To measure the activity of obtained by us FTO protein, Chemiluminescent Assay Kit was used (BPS Bioscience). As a substrate, we used N^6meA modification on RNA. The reactions were carried out according to the manufacturer’s protocol. Chemiluminescence was measured using the plate reader Synergy HT (Bio Tek) with 1 sec of integration time and 100 ms of delay after plate movement.
# HeLa cells [12] = tested on: HeLa cells; design: method as in ref 32 (Varela-Ramirez and co-workers 2011); settings: ref 32 (Varela-Ramirez and co-workers 2011); cited from earlier work
# [13] = ALKBH3 100 nM, 3meC on TT(3meC)TT pentamer, 30 min 37 °C, read-out: IC50 (Enzyme: ALKBH3 100nM; Substrate: 3meC)
# [14] = EcAlkB 100 nM, 3meC on TT(3meC)TT pentamer, 30 min 37 °C, read-out: IC50 (Enzyme: EcAlkB 100nM; Substrate: 3meC)
# T2 sequence (P05050 whole entry): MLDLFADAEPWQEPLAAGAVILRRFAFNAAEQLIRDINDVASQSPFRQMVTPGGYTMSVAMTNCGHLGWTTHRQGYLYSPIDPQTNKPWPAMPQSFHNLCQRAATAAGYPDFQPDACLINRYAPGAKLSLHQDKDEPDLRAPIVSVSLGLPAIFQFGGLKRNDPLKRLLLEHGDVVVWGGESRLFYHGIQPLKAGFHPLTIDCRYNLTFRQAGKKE
# T3 sequence (Q9C0B1 whole entry): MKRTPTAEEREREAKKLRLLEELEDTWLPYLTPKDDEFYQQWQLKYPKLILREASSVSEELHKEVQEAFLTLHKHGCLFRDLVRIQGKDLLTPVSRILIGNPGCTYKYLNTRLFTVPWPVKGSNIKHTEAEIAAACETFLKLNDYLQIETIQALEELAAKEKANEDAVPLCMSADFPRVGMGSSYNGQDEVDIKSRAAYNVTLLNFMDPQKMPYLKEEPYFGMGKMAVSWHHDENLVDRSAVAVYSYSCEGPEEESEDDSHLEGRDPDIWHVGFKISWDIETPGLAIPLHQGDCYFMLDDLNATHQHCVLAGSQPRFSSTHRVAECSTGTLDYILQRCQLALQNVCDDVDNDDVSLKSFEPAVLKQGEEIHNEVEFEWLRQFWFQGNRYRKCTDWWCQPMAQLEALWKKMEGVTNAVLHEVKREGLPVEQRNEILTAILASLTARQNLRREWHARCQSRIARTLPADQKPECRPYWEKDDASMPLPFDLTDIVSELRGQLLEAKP
SMILES,IC50 (EUFA30 cells [1]; Homo sapiens) [µM],"IC50 (HeLa cells [4]; Homo sapiens, HeLa) [µM]","IC50 (HEK293 cells; Homo sapiens, HEK293) [µM]",binding to ALKBH3 judged by increase of melting temperature (ALKBH3 [6]),IC50 (BICR18 cells; Homo sapiens) [µM],IC50 (EcAlkB) [µM],"IC50 (U87 cells [7]; Homo sapiens, U-87 MG) [µM]",IC50 (ALKBH3 [5]; [13]) [nM],IC50 (FTO [11]) [µM],IC50 (EcAlkB; [14]) [µM],also measured
O=C(O)c1cc(O)c2c(c1)C(=O)c1cccc(O)c1C2=O [Rhein],423,126,157,strongest ligand,89.4,20.5,> 1000,–,–,–,"IC50 (ALKBH3 [2]): 5.3 µM; increase of early apoptosis stage compared to untreated control (EUFA30 cells [3]): approximately 2 fold; increase of late apoptosis compared to untreated control (EUFA30 cells [3]): 15 fold; increase of necrosis compared to untreated control (EUFA30 cells [3]): 11 fold; IC50 (ALKBH3 [5]; as printed in text in nM, 3meC substrate, read-out: IC50 against ALKBH3): 40 nM; cytotoxic effect against U87 cells (U87 cells [8]): did not found any cytotoxic effect"
Cc1cc2c(c(O)c1Cl)C(=O)c1c(O)cc(O)cc1C2=O [7-Chloroemodin],–,–,–,–,–,–,–,116000 ± 7000,28.1,19.8,IC50 (EUFA30 cells [1]): 163 µM; melting temperature of FTO-ligand complex (FTO [9]): 71.5 ± 0.2 °C; IC50 (HeLa cells [4]): 33.8 µM; IC50 (HEK293 cells): 180 µM; number of necrotic HeLa cells (HeLa cells [10]; 25 μM): 18.8%; number of necrotic HeLa cells (HeLa cells [10]; 100 μM): 37.6%; IC50 (BICR18 cells): 99.5 µM; IC50 (U87 cells [7]): 120 µM
O=C1c2cccc(O)c2C(=O)c2c(O)cc(CO)cc21 [Aloe-Emodin],380,26,> 1000,slightly more weakly,57.5,230 ± 100,> 1000,8800,52 ± 12.6,–,cytotoxicity against HEK293 (HEK293 cells): not cytotoxic; cytotoxicity against U87 (U87 cells [7]): not cytotoxic
"Cc1c(Cl)c(O)c2c(c1Cl)C(=O)c1cc(O)cc(O)c1C2=O [5,7-Dichloroemodin]",–,–,–,slightly more weakly,–,–,–,176000 ± 6000,42.1 ± 6.5,16.4,IC50 (EUFA30 cells [1]): 102 µM; melting temperature of FTO-ligand complex (FTO [9]): 67.4 ± 0.1 °C; IC50 (HeLa cells [4]): 10.6 µM; IC50 (HEK293 cells): 87.3 µM; number of necrotic HeLa cells (HeLa cells [10]; 25 μM): 69.2%; number of necrotic HeLa cells (HeLa cells [10]; 100 μM): 83.1%; IC50 (BICR18 cells): 39.8 µM; IC50 (U87 cells [7]): 158 µM
"[CH3][Sn]([Cl])([c]1ccccc1)[c]1ccccc1 [DPMT, diphenylmethyltin chloride]",–,–,–,–,–,–,–,–,–,–,necrosis on HeLa cells (HeLa cells [12]): more than 40 % of cells
"Cc1c(C(=O)O)c(O)cc2c1C(=O)c1c(O)c([C@@H]3O[C@H](CO)[C@@H](O)[C@H](O)[C@H]3O)c(O)c(O)c1C2=O [Carminic Acid, Carminic acid]",311,387,219,–,305,–,258,111000 ± 7000,25.3 ± 2.2,170 ± 70,–
Cc1cc(O)c2c(c1)C(=O)c1cc(O)cc(O)c1C2=O [Emodin],138,110,–,slightly more weakly,81.1,520 ± 100,42.7,540000 ± 160000,49.4 ± 19,–,–
